Data from PMC6539891, “Indole-Based Hydrazones Containing A Sulfonamide Moiety as Selective Inhibitors of Tumor-Associated Human Carbonic Anhydrase Isoforms IX and XII” (International Journal of Molecular Sciences, 2019).

How the values were obtained:
hCA II = target: T1, hCA II (Homo sapiens, UniProt P00918); experiment: stopped-flow CO2 hydration assay; assay type: biochemical
T1 construct: gene CA2; recombinant from E. coli; cytosolic isoform
Description: stopped-flow CO2 hydration assay on hCA II

hCA I = target: T2, hCA I (Homo sapiens, UniProt P00915); experiment: stopped-flow CO2 hydration assay; assay type: biochemical
T2 construct: gene CA1; recombinant from E. coli; cytosolic isoform
Description: stopped-flow CO2 hydration assay on hCA I

hCA XII = target: T3, hCA XII (Homo sapiens, UniProt O43570); experiment: stopped-flow CO2 hydration assay; assay type: biochemical
T3 construct: gene CA12; recombinant from E. coli; transmembrane isoform with extracellular catalytic domain
Description: stopped-flow CO2 hydration assay on hCA XII

hCA IX = target: T4, hCA IX (Homo sapiens, UniProt Q16790); experiment: stopped-flow CO2 hydration assay; assay type: biochemical; settings: read-out: KI^* (nM) / hCAIX
T4 construct: gene CA9; recombinant from E. coli; transmembrane isoform with extracellular catalytic domain
Description: stopped-flow CO2 hydration assay on hCA IX

[1] = stopped-flow CO2 hydration assay; assay type: biochemical, Homo sapiens; settings: read-out: KI^* (nM) / hCA I

T2 sequence (P00915 2-261): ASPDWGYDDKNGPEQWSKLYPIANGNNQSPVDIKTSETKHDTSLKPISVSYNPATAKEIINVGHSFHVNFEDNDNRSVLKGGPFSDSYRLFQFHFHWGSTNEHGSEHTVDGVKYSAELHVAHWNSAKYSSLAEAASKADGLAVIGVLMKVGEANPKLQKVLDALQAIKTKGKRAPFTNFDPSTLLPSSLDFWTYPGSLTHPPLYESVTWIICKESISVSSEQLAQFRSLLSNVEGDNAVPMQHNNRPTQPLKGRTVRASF
T3 sequence (O43570 30-289 limits assumed): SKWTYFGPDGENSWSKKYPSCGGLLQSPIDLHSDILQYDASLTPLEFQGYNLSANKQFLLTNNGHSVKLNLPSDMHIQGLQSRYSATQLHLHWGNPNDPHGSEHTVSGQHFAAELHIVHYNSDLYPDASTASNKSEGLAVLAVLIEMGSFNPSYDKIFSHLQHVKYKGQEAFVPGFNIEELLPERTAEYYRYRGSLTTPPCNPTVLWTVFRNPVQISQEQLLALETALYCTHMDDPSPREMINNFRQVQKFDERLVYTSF

| SMILES | Ki (hCA II) | Ki (hCA I) | Ki (hCA XII) | Ki (hCA IX) | Ki [1] |
| --- | --- | --- | --- | --- | --- |
| CCC1CCC(=NNC(=O)c2[nH]c3ccc(S(N)(=O)=O)cc3c2-c2ccccc2)CC1 (stereo not drawn) [compound 19, 2-{[2-(4-Ethylcyclohexylidene)hydrazinyl]carbonyl}-3-phenyl-1H-indole-5-sulfonamide] | 1280 nM | > 10000 nM | 220 nM | 475 nM | – |
| NS(=O)(=O)c1ccc2[nH]c(C(=O)NN=C3CCCCC3)c(-c3ccccc3)c2c1 [compound 17, 2-[(2-Cyclohexylidenehydrazinyl)carbonyl]-3-phenyl-1H-indole-5-sulfonamide] | 5870 nM | > 10000 nM | 86.2 nM | 191 nM | – |
| CCC(C)=NNC(=O)c1[nH]c2ccc(S(N)(=O)=O)cc2c1-c1ccccc1 [compound 13, 2-{[2-(Butan-2-ylidene)hydrazinyl]carbonyl}-3-phenyl-1H-indole-5-sulfonamide] | 8030 nM | 9620 nM | 92.4 nM | 42.1 nM | – |
| NS(=O)(=O)c1ccc2[nH]c(C(=O)NN=C3CCN(Cc4ccccc4)CC3)c(-c3ccccc3)c2c1 [compound 24, 2-{[2-(1-Benzylpiperidine-4-ylidene)hydrazinyl]carbonyl}-3-phenyl-1H-indole-5-sulfonamide] | 372 nM | 7380 nM | 9.4 nM | 11.7 nM | – |
| NS(=O)(=O)c1ccc2[nH]c(C(=O)NN=Cc3c[nH]c4ccccc34)c(-c3ccccc3)c2c1 [compound 9, 3-Phenyl-2-{[2-(1H-indole-3-ylmethylidene)hydrazinyl]carbonyl}-1H-indole-5-sulfonamide] | – | > 10000 nM | 77.3 nM | 207 nM | > 10000 nM |
| CN1CCC(=NNC(=O)c2[nH]c3ccc(S(N)(=O)=O)cc3c2-c2ccccc2)CC1 [compound 23, 2-{[2-(1-Methylpiperidine-4-ylidene)hydrazinyl]carbonyl}-3-phenyl-1H-indole-5-sulfonamide] | 309 nM | > 10000 nM | 62.9 nM | 9.2 nM | – |
| NS(=O)(=O)c1ccc2[nH]c(C(=O)NN=Cc3cccs3)c(-c3ccccc3)c2c1 [compound 4, 3-Phenyl-2-{[2-(thiophene-2-ylmethylidene)hydrazinyl]carbonyl}-1H-indole-5-sulfonamide] | > 10000 nM | 6670 nM | 4.5 nM | 47.4 nM | – |
| C=NNC(=O)c1[nH]c2ccc(S(N)(=O)=O)cc2c1-c1ccccc1 [compound 10, 2-[(2-Methylidenehydrazinyl)carbonyl]-3-phenyl-1H-indole-5-sulfonamide] | 9370 nM | 7480 nM | 23.8 nM | 32.9 nM | – |
| NS(=O)(=O)c1ccc2[nH]c(C(=O)NN=Cc3ccc(Br)s3)c(-c3ccccc3)c2c1 [compound 5, 2-({2-[(5-Bromothiophene-2-yl)methylidene]hydrazinyl}carbonyl)-3-phenyl-1H-indole-5-sulfonamide] | > 10000 nM | 9410 nM | 75.1 nM | 48.4 nM | – |
| NS(=O)(=O)c1ccc2[nH]c(C(=O)NN=Cc3ccncc3)c(-c3ccccc3)c2c1 [compound 8, 3-Phenyl-2-{[2-(pyridine-4-ylmethylidene)hydrazinyl]carbonyl}-1H-indole-5-sulfonamide] | 3490 nM | 3130 nM | 6.6 nM | 15.8 nM | – |
| CC(C)(C)C1CCC(=NNC(=O)c2[nH]c3ccc(S(N)(=O)=O)cc3c2-c2ccccc2)CC1 (stereo not drawn) [compound 22, 2-{[2-(4-tert-buthylcyclohexylidene)hydrazinyl]carbonyl}-3-phenyl-1H-indole-5-sulfonamide] | 3380 nM | > 10000 nM | 26.6 nM | 17.4 nM | – |
| NS(=O)(=O)c1ccc2[nH]c(C(=O)NN=Cc3cccnc3)c(-c3ccccc3)c2c1 [compound 7, 3-Phenyl-2-{[2-(pyridine-3-ylmethylidene)hydrazinyl]carbonyl}-1H-indole-5-sulfonamide] | 8910 nM | 8590 nM | 1.4 nM | 35.8 nM | – |
| CCC(CC)=NNC(=O)c1[nH]c2ccc(S(N)(=O)=O)cc2c1-c1ccccc1 [compound 14, 2-{[2-(Pentan-3-ylidene)hydrazinyl]carbonyl}-3-phenyl-1H-indole-5-sulfonamide] | 6620 nM | 9250 nM | 9.4 nM | 43.7 nM | – |
| NS(=O)(=O)c1ccc2[nH]c(C(=O)NN=C3CCC(c4ccccc4)CC3)c(-c3ccccc3)c2c1 (stereo not drawn) [compound 21, 2-{[2-(4-Phenylcyclohexylidene)hydrazinyl]carbonyl}-3-phenyl-1H-indole-5-sulfonamide] | 831 nM | > 10000 nM | 14.8 nM | 32.3 nM | – |
| CC=NNC(=O)c1[nH]c2ccc(S(N)(=O)=O)cc2c1-c1ccccc1 [compound 11, 2-[(2-Ethylidenehydrazinyl)carbonyl]-3-phenyl-1H-indole-5-sulfonamide] | 5870 nM | 4060 nM | 62.6 nM | 12.9 nM | – |
| CC(C)=NNC(=O)c1[nH]c2ccc(S(N)(=O)=O)cc2c1-c1ccccc1 [compound 12, 3-Phenyl-2-{[2-(propan-2-ylidene)hydrazinyl]carbonyl}-1H-indole-5-sulfonamide] | 8500 nM | 9560 nM | 87.9 nM | 47.9 nM | – |
| CC1CCC(=NNC(=O)c2[nH]c3ccc(S(N)(=O)=O)cc3c2-c2ccccc2)CC1 (stereo not drawn) [compound 18, 2-{[2-(4-Methylcyclohexylidene)hydrazinyl]carbonyl}-3-phenyl-1H-indole-5-sulfonamide] | 8940 nM | > 10000 nM | 139 nM | 419 nM | – |
| Cn1cccc1C=NNC(=O)c1[nH]c2ccc(S(N)(=O)=O)cc2c1-c1ccccc1 [compound 6, 2-({2-[(1-Methyl-1H-pyrrol-2-yl)methylidene]hydrazinyl}carbonyl)-3-phenyl-1H-indole-5-sulfonamide] | > 10000 nM | 9570 nM | 64.4 nM | 44.3 nM | – |
| CCCC1CCC(=NNC(=O)c2[nH]c3ccc(S(N)(=O)=O)cc3c2-c2ccccc2)CC1 (stereo not drawn) [compound 20, 2-{[2-(4-Propylcyclohexylidene)hydrazinyl]carbonyl}-3-phenyl-1H-indole-5-sulfonamide] | 796 nM | > 10000 nM | 154 nM | 348 nM | – |
| NS(=O)(=O)c1ccc2[nH]c(C(=O)NN=C3CCCC3)c(-c3ccccc3)c2c1 [compound 16, 2-[(2-Cyclopentylidenehydrazinyl)carbonyl]-3-phenyl-1H-indole-5-sulfonamide] | 5960 nM | > 10000 nM | 97.2 nM | 476 nM | – |
| CC(CC(C)C)=NNC(=O)c1[nH]c2ccc(S(N)(=O)=O)cc2c1-c1ccccc1 [compound 15, 2-{[2-(4-Methylpentan-2-ylidene)hydrazinyl]carbonyl}-3-phenyl-1H-indole-5-sulfonamide] | 6560 nM | 8650 nM | 27.9 nM | 188 nM | – |
